Test results: US10590129B2 (Incozen Therapeutics Pvt. Ltd., priority 2010, dated 2020)
Where a name gives a salt, the structure may show the parent alone.

Test system: MKN-45 cells
Assay: Inhibition of MKN-45 proliferation (MTT)
Assay type: cell-based, human
Settings: for inhibition at 0.1 µM / Inhibition (% Inhibition of MKN-45 proliferation): 0.1 μM
Description: Inhibition of MKN-45 Proliferation:
Cell proliferation assays were carried out using the high Met expressing human gastric adenocarcinoma cell line, MKN-45, according to the following schedule:
Day 1: Cells were plated in 96-well plates in complete growth medium.
Day 2: Compounds at desired concentrations were added.
Day 5: Cell viability was determined using the 3-[4,5-dimethylthiazol-2-yl]-2,5-diphenyltetrazolium bromide (MTT) dye reduction test.

[1] = Homo sapiens, MKN-45, MKN-45 proliferation

Which results are given for `CCNC(=O)c1ccc(-c2ccc3nnn(Cc4ccc5c(ccc[n+]5[O-])c4)c3n2)cc1Cl`?
inhibition at 0.1 µM [1]: < 25%; inhibition at 1 µM [1]: < 25%

What does the source list for `Cc1n[nH]cc1-c1ccc2nnn(Cc3ccc4ncccc4c3)c2n1`?
inhibition at 0.1 µM [1]: 25 to 50%; inhibition at 1 µM [1]: < 25%

How did the GI50 [1] turn out when `CC(c1ccc2ncccc2c1)n1nnc2ccc(-c3ccc(C(N)=O)c(Cl)c3)nc21` (racemic) [Ex 214, 2-Chloro-4-(3-(1-(quinolin-6-yl)ethyl)-3H-[1,2,3]triazolo[4,5-b]pyridin-5-yl)benzamide] was run?
Its GI50 is at most 50 nM.

What about the inhibition at 0.1 µM [1] of the same compound?
Its inhibition at 0.1 µM is 75 to 100%.

Which inhibition at 0.1 µM [1] does the source give for `C/C(=N/NC(=O)c1ccncc1)c1ccc2nnn(Cc3ccc4ncccc4c3)c2n1` (single isomer, unassigned) [Ex 220, N′-(1-(3-(quinolin-6-ylmethyl)-3H-[1,2,3]triazolo[4,5-b]pyridin-5-yl)ethylidene)iso-nicotinohydrazide] here?
Its inhibition at 0.1 µM is under 25%.

With `OCc1ccc(-c2ccc3nnn(Cc4ccc5ncccc5c4)c3n2)cc1F` [Ex41, hydrochloride] as the compound, how does the GI50 (MKN-45 proliferation, hydrochloride) read?
The GI50 was 50 to 150 nM.

`O=C(NC1CCCCC1)c1ccc(-c2ccc3nnn(Cc4ccc5ncccc5c4)c3n2)cc1F` [Ex45] was tested. Which GI50 [1] did it give?
Its GI50 is 50 to 150 nM.

Which GI50 [1] does the source give for `CNC(=O)c1cccc(-c2ccc3nnn(Cc4ccc5ncccc5c4)c3n2)c1` [Ex55] here?
The GI50 was 50 to 150 nM.

`C=CCNC(=O)c1ccc(-c2ccc3nnn(Cc4ccc5ncccc5c4)c3n2)cc1F` [Ex61] was tested. Which GI50 [1] did it give?
Its GI50 is at most 50 nM.

`CONC(=O)c1ccc(-c2ccc3nnn(Cc4ccc5ncccc5c4)c3n2)cc1F` [Ex62] was tested. Which GI50 [1] did it give?
The GI50 was at most 50 nM.

Which inhibition at 0.1 µM [1] does the source give for `Nc1ccc(-c2ccc3nnn(Cc4ccc5ncccc5c4)c3n2)cc1` [Ex64] here?
Its inhibition at 0.1 µM is under 25%.

With `O=C(NCc1ccco1)c1ccc(-c2ccc3nnn(Cc4ccc5ncccc5c4)c3n2)cc1F` [Ex92] as the compound, how does the inhibition at 0.1 µM [1] read?
Its inhibition at 0.1 µM is under 25%.

With `O=C(NC1CC1)c1ccc(-c2ccc3nnn(Cc4ccc5ncccc5c4)c3n2)cc1Cl` [Ex113] as the compound, how does the inhibition at 0.1 µM [1] read?
Its inhibition at 0.1 µM is 75 to 100%.

Which GI50 [1] does the source give for `C[C@H](c1ccc2ncccc2c1)n1nnc2ccc(-c3ccc(C(N)=O)c(Cl)c3)nc21` [Ex222] here?
The GI50 was 150 to 500 nM.

`O=C(O)c1ccc(-c2ccc3nnn(Cc4ccc5ncccc5c4)c3n2)cc1` [Ex 22, Lithium 4-(3-(quinolin-6-ylmethyl)-3H-[1,2,3]triazolo[4,5-b]pyridin-5-yl)benzoate] was tested. Which inhibition at 1 µM (Homo sapiens, MKN-45 proliferation) did it give?
Its inhibition at 1 µM is under 25%.

`CN1CCN(C(=O)c2ccc(-c3ccc4nnn(Cc5ccc6ncccc6c5)c4n3)cc2)CC1` [Ex 26, (4-Methylpiperazin-1-yl)(4-(3-(quinolin-6-ylmethyl)-3H-[1,2,3]triazolo[4,5-b]pyridin-5-yl)phenyl)methanone] was tested. Which GI50 [1] did it give?
Its GI50 is under 1000 nM.

How did the GI50 [1] turn out when `CN(C)CCNC(=O)c1ccc(-c2ccc3nnn(Cc4ccc5ncccc5c4)c3n2)cc1` [Ex 27, N-(2-(dimethylamino)ethyl)-4-(3-(quinolin-6-ylmethyl)-3H-[1,2,3]triazolo[4,5-b]pyridin-5-yl)benzamide] was run?
The GI50 was 50 to 150 nM.

With `O=C(NC1CCOCC1)c1ccc(-c2ccc3nnn(Cc4ccc5ncccc5c4)c3n2)cc1` [Ex 28, 4-(3-(quinolin-6-ylmethyl)-3H-[1,2,3]triazolo[4,5-b]pyridin-5-yl)-N-(tetrahydro-2H-pyran-4-yl)benzamide] as the compound, how does the GI50 [1] read?
Its GI50 is 150 to 500 nM.

With `O=C(NC1CCNCC1)c1ccc(-c2ccc3nnn(Cc4ccc5ncccc5c4)c3n2)cc1` [Ex 30, N-(Piperidin-4-yl)-4-(3-(quinolin-6-ylmethyl)-3H-[1,2,3]triazolo[4,5-b]pyridin-5-yl)benzamide hydrochloride] as the compound, how does the GI50 [1] read?
The GI50 was 150 to 500 nM.

Which GI50 [1] does the source give for `CN(C)CCNC(=O)c1ccc(-c2ccc3nnn(Cc4ccc5ncccc5c4)c3n2)cc1F` [Ex 31, N-(2-(dimethylamino)ethyl)-2-fluoro-4-(3-(quinolin-6-ylmethyl)-3H-[1,2,3]triazolo[4,5-b]pyridin-5-yl)benzamide] here?
The GI50 was 150 to 500 nM.

`O=C(c1ccc(-c2ccc3nnn(Cc4ccc5ncccc5c4)c3n2)cc1)N1CCC[C@H]1CN1CCCC1` [Ex 32, (S)-(2-(pyrrolidin-1-ylmethyl)pyrrolidin-1-yl)(4-(3-(quinolin-6-ylmethyl)-3H-[1,2,3]triazolo[4,5-b]pyridin-5-yl)phenyl)methanone hydrochloride] was tested. Which GI50 [1] did it give?
Its GI50 is under 1000 nM.

Which GI50 [1] does the source give for `O=C(c1ccc(-c2ccc3nnn(Cc4ccc5ncccc5c4)c3n2)cc1)N1CCN(CCO)CC1` [Ex 33, (4-(2-hydroxyethyl)piperazin-1-yl)(4-(3-(quinolin-6-ylmethyl)-3H-[1,2,3]triazolo[4,5-b]pyridin-5-yl)phenyl)methanone] here?
Its GI50 is 150 to 500 nM.

`O=C(c1ccc(-c2ccc3nnn(Cc4ccc5ncccc5c4)c3n2)cc1)N1CC[C@@H](O)C1` [Ex 34, (R)-(3-hydroxypyrrolidin-1-yl)(4-(3-(quinolin-6-ylmethyl)-3H-[1,2,3]triazolo[4,5-b]pyridin-5-yl)phenyl)methanone hydrochloride] was tested. Which GI50 [1] did it give?
Its GI50 is under 1000 nM.

`O=C(NCCN1CCCCC1)c1ccc(-c2ccc3nnn(Cc4ccc5ncccc5c4)c3n2)cc1` [Ex 35, N-(2-(piperidin-1-yl)ethyl)-4-(3-(quinolin-6-ylmethyl)-3H-[1,2,3]triazolo[4,5-b]pyridin-5-yl)benzamide] was tested. Which GI50 [1] did it give?
Its GI50 is 50 to 150 nM.

With `O=C(NCCN1CCOCC1)c1ccc(-c2ccc3nnn(Cc4ccc5ncccc5c4)c3n2)cc1` [Ex 36, N-(2-morpholinoethyl)-4-(3-(quinolin-6-ylmethyl)-3H-[1,2,3]triazolo[4,5-b]pyridin-5-yl)benzamide] as the compound, how does the GI50 [1] read?
The GI50 was 50 to 150 nM.

`O=C(NCCN1CCCC1)c1ccc(-c2ccc3nnn(Cc4ccc5ncccc5c4)c3n2)cc1` [Ex 37, N-(2-(pyrrolidin-1-yl)ethyl)-4-(3-(quinolin-6-ylmethyl)-3H-[1,2,3]triazolo[4,5-b]pyridin-5-yl)benzamide] was tested. Which GI50 [1] did it give?
The GI50 was at most 50 nM.

Which GI50 [1] does the source give for `O=C(c1ccc(-c2ccc3nnn(Cc4ccc5ncccc5c4)c3n2)cc1)N1CCC(N2CCCC2)CC1` [Ex 38, (4-(pyrrolidin-1-yl)piperidin-1-yl)(4-(3-(quinolin-6-ylmethyl)-3H-[1,2,3]triazolo[4,5-b]pyridin-5-yl)phenyl)methanone] here?
The GI50 was under 1000 nM.

With `CN(C)CCCNC(=O)c1ccc(-c2ccc3nnn(Cc4ccc5ncccc5c4)c3n2)cc1` [Ex 39, N-(3-(dimethylamino)propyl)-4-(3-(quinolin-6-ylmethyl)-3H-[1,2,3]triazolo[4,5-b]pyridin-5-yl)benzamide] as the compound, how does the GI50 [1] read?
The GI50 was 50 to 150 nM.

Which GI50 [1] does the source give for `COCCN(CCOC)C(=O)c1ccc(-c2ccc3nnn(Cc4ccc5ncccc5c4)c3n2)cc1` [Ex 40, N,N-Bis(2-methoxyethyl)-4-(3-(quinolin-6-ylmethyl)-3H-[1,2,3]triazolo[4,5-b]pyridin-5-yl)benzamide hydrochloride] here?
Its GI50 is under 1000 nM.

How did the GI50 [1] turn out when `O=C(NCCN1CCCC1)c1ccc(-c2ccc3nnn(Cc4ccc5ncccc5c4)c3n2)cc1F` [Ex 44, 2-Fluoro-N-(2-(pyrrolidin-1-yl)ethyl)-4-(3-(quinolin-6-ylmethyl)-3H-[1,2,3]triazolo[4,5-b]pyridin-5-yl)benzamide] was run?
The GI50 was 50 to 150 nM.

With `CNC(=O)c1cccc(-c2ccc3nnn(Cc4ccc5ncccc5c4)c3n2)c1` [Ex 55, N-Methyl-3-(3-(quinolin-6-ylmethyl)-3H-[1,2,3]triazolo[4,5-b]pyridin-5-yl)benzamide] as the compound, how does the inhibition at 0.1 µM [1] read?
Its inhibition at 0.1 µM is under 25%.

What does the source list for `O=C(O)CCNc1ccc(-c2ccc3nnn(Cc4ccc5ncccc5c4)c3n2)cc1F` [Ex 58, 3-(2-Fluoro-4-(3-(quinolin-6-ylmethyl)-3H-[1,2,3]triazolo[4,5-b]pyridin-5-yl)phenylamino)propanoic acid]?
inhibition at 0.1 µM [1]: < 25%; inhibition at 1 µM [1]: < 25%

Which inhibition at 0.1 µM [1] does the source give for `CCNC(=O)c1ccc(-c2ccc3nnn(Cc4ccc5ncccc5c4)c3n2)cc1F` [Ex 73, N-Ethyl-2-fluoro-4-(3-(quinolin-6-ylmethyl)-3H-[1,2,3]triazolo[4,5-b]pyridin-5-yl)benzamide hydrochloride] here?
Its inhibition at 0.1 µM is 75 to 100%.

What about the inhibition at 1 µM [1] of the same compound?
The inhibition at 1 µM was 50 to 75%.

`NC(=O)c1ccc(-c2ccc3nnn(Cc4ccc5ncccc5c4)c3n2)cc1F` [Ex 74, 2-Fluoro-4-(3-(quinolin-6-ylmethyl)-3H-[1,2,3]triazolo[4,5-b]pyridin-5-yl)benzamide hydrochloride] was tested. Which inhibition at 0.1 µM [1] did it give?
Its inhibition at 0.1 µM is 50 to 75%.

And the inhibition at 1 µM [1]?
Its inhibition at 1 µM is 50 to 75%.

Which inhibition at 0.1 µM [1] does the source give for `CC(C)(c1ccc2ncccc2c1)n1nnc2ccc(-c3ccc(C(N)=O)c(F)c3)nc21` [Ex 84, 2-Fluoro-4-(3-(2-(quinolin-6-yl)propan-2-yl)-3H-[1,2,3]triazolo[4,5-b]pyridin-5-yl)benzamide] here?
Its inhibition at 0.1 µM is under 25%.

And the inhibition at 1 µM [1]?
Its inhibition at 1 µM is under 25%.

What does the source list for `O=C(NC1CC1)c1ccc(-c2ccc3nnn(Cc4ccc5c(ccc[n+]5[O-])c4)c3n2)cc1F` [Ex 88, 6-((5-(4-(Cyclopropylcarbamoyl)-3-fluorophenyl)-3H-[1,2,3]triazolo[4,5-b]pyridin-3-yl)methyl)quinoline 1-oxide]?
inhibition at 0.1 µM [1]: < 25%; inhibition at 1 µM [1]: < 25%

How did the inhibition at 1 µM [1] turn out when `CN(C)CCCNC(=O)c1ccc(-c2ccc3nnn(Cc4ccc5ncccc5c4)c3n2)cc1F` [Ex 121, N-(3-(dimethylamino)propyl)-2-fluoro-4-(3-(quinolin-6-ylmethyl)-3H-[1,2,3]triazolo[4,5-b]pyridin-5-yl)benzamide dihydrochloride] was run?
The inhibition at 1 µM was under 25%.

What about the “Inhibition (% Inhibition of MKN-45 proliferation)” value (MKN-45 proliferation, dihydrochloride) of the same compound?
Its value is “A (A = ≥75 to 100%)”.

Which “Inhibition (% Inhibition of MKN-45 proliferation)” value (MKN-45 proliferation) does the source give for `Cl.NC(=O)c1ccc(-c2ccc3nnn(Cc4ccc5ncccc5c4)c3n2)cc1Cl` [Ex 123, 2-Chloro-4-(3-(quinolin-6-ylmethyl)-3H-[1,2,3]triazolo[4,5-b]pyridin-5-yl)benzamide hydrochloride] here?
Its value is “B (B = ≥50-<75%)”.

Which inhibition at 0.1 µM [1] does the source give for `NCCCNC(=O)c1ccc(-c2ccc3nnn(Cc4ccc5ncccc5c4)c3n2)cc1F` [Ex 125, N-(3-Aminopropyl)-2-fluoro-4-(3-(quinolin-6-ylmethyl)-3H-[1,2,3]triazolo[4,5-b]pyridin-5-yl)benzamide dihydrochloride] here?
Its inhibition at 0.1 µM is under 25%.

What about the inhibition at 1 µM [1] of the same compound?
The inhibition at 1 µM was under 25%.

With `CN(C)CCCNC(=O)c1ccc(-c2ccc3nnn(Cc4ccc5ncccc5c4)c3n2)cc1Cl` [Ex 126, 2-Chloro-N-(3-(dimethylamino)propyl)-4-(3-(quinolin-6-ylmethyl)-3H-[1,2,3]triazolo[4,5-b]pyridin-5-yl)benzamide dihydrochloride] as the compound, how does the inhibition at 0.1 µM [1] read?
The inhibition at 0.1 µM was 75 to 100%.
